# Laboratory results taken from PubChem BioAssay AID1963429 (Molecular Pharmacology Branch, DTP, NCI, 2024).
# Test system: 126254-015-R-J1-PDC complex spheroid growth, % test/control
# Assay: Anticancer human tumor 126254-015-R-J1-PDC patient-derived soft tissue sarcoma cell line growth inhibition [Asc]
# Settings: for IC50: curve of first compound; for viability, T/C: stronger effect = lower value
# Method in brief: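 Tumor cells were grown as multicellular spheroids with stromal HUVEC and mesenchymal stem cells and treated singly or in combination. Concentrations fell in half-log steps from the clinical Cmax, or from 10 microM where none was known.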
# 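Also: spheroids exposed to compound for seven days.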
# 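For viability, T/C in this document: 100% = DMSO vehicle control wells.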
compound,measurement,setting,value
CCN1CCN(Cc2ccc(Nc3ncc(F)c(-c4cc(F)c5nc(C)n(C(C)C)c5c4)n3)nc2)CC1 + Cc1c(S(C)(=O)=O)c(-c2cc(F)cc(N3CCN(c4ccc(NS(=O)(=O)c5ccc(NC(CCN6CCC(C(=O)OCCCP(=O)(O)O)CC6)CSc6ccccc6)c(S(=O)(=O)C(F)(F)F)c5)cc4)CC3)c2)c(-c2ccc(Cl)cc2)n1C(C)C,IC50,second compound 0.1 µM,> 1000 nM
same,IC50,second compound 0.316 µM,> 1000 nM
same,IC50,second compound 1 µM,> 1000 nM
same,IC50,second compound 3.16 µM,> 1000 nM
same,IC50,second compound 10 µM,> 1000 nM
same,"viability, T/C","second compound 0.1 µM, first compound 0.00316 µM",99.3%
same,"viability, T/C","second compound 0.1 µM, first compound 0.01 µM",95.5%
same,"viability, T/C","second compound 0.1 µM, first compound 0.0316 µM",88.4%
same,"viability, T/C","second compound 0.1 µM, first compound 0.1 µM",90.1%
same,"viability, T/C","second compound 0.1 µM, first compound 0.316 µM",110%
same,"viability, T/C","second compound 0.1 µM, first compound 1 µM",98.4%
same,"viability, T/C","second compound 0.316 µM, first compound 0.00316 µM",87.8%
same,"viability, T/C","second compound 0.316 µM, first compound 0.01 µM",89.1%
same,"viability, T/C","second compound 0.316 µM, first compound 0.0316 µM",84.4%
same,"viability, T/C","second compound 0.316 µM, first compound 0.1 µM",95.5%
same,"viability, T/C","second compound 0.316 µM, first compound 0.316 µM",90.3%
same,"viability, T/C","second compound 0.316 µM, first compound 1 µM",87%
same,"viability, T/C","second compound 1 µM, first compound 0.00316 µM",86.5%
same,"viability, T/C","second compound 1 µM, first compound 0.01 µM",81.7%
same,"viability, T/C","second compound 1 µM, first compound 0.0316 µM",93.3%
same,"viability, T/C","second compound 1 µM, first compound 0.1 µM",86.4%
same,"viability, T/C","second compound 1 µM, first compound 0.316 µM",97.9%
same,"viability, T/C","second compound 1 µM, first compound 1 µM",73.3%
same,"viability, T/C","second compound 3.16 µM, first compound 0.00316 µM",96.6%
same,"viability, T/C","second compound 3.16 µM, first compound 0.01 µM",87.7%
same,"viability, T/C","second compound 3.16 µM, first compound 0.0316 µM",90.1%
same,"viability, T/C","second compound 3.16 µM, first compound 0.1 µM",72.4%
same,"viability, T/C","second compound 3.16 µM, first compound 0.316 µM",86.6%
same,"viability, T/C","second compound 3.16 µM, first compound 1 µM",87.3%
same,"viability, T/C","second compound 10 µM, first compound 0.00316 µM",86.5%
same,"viability, T/C","second compound 10 µM, first compound 0.01 µM",90.4%
same,"viability, T/C","second compound 10 µM, first compound 0.0316 µM",86.1%
same,"viability, T/C","second compound 10 µM, first compound 0.1 µM",98%
same,"viability, T/C","second compound 10 µM, first compound 0.316 µM",87.5%
same,"viability, T/C","second compound 10 µM, first compound 1 µM",73.8%
